The values below are quoted from earlier work in patent US8349888B2, “Phytoestrogenic isoflavone compositions, their preparation and use thereof for protection against and treatment of radiation injury” (priority 2000, dated 2013).

The conditions of series [1]: radioprotective doses.

In the case of `C[C@]12CC[C@@H]3c4ccc(O)cc4CC[C@H]3[C@@H]1CC[C@@H]2O` [17-beta-estradiol], the behavioral toxicity entry in series [1] was “behaviorally toxic”.

Turning to `O=c1cc(-c2ccc(O)c(O)c2)oc2c([C@@H]3O[C@H](CO)[C@@H](O)[C@H](O)[C@H]3O)c(O)cc(O)c12` [orientin], the “efficacy if given after radiation” value with mice is on record as “not effective at all”.

With `O=c1cc(-c2ccc(O)cc2)oc2c([C@@H]3O[C@H](CO)[C@@H](O)[C@H](O)[C@H]3O)c(O)c([C@@H]3O[C@H](CO)[C@@H](O)[C@H](O)[C@H]3O)c(O)c12` [vicenin], the “efficacy if given after radiation” value with mice is “not effective at all”.
